Source: patent US11186534B2, “Derivatives of sulindac can protect normal cells against oxidative damage” (University of South Alabama, priority 2017, dated 2021)

What was measured:
[1] = molecular target: PDE10 (Homo sapiens, UniProt Q9Y233); experiment: IMAP fluorescence polarization PDE assay, PDE10; type: biochemical; details: FIG. 5B
Protocol: (§1) PDE activity was measured using the IMAP fluorescence polarization PDE assay (Molecular Devices) in which the binding of hydrolyzed fluorescent cyclic nucleotide substrate to the IMAP reagent increases fluorescence polarization. Each well of a 96-well nonbinding plate contained 0.25 mg/mL of recombinant enzyme preparations. Enzymes were incubated with COMPOUND 9 or vehicle (DMSO) for 30 min at 30° C. before the addition of a substrate mixture containing 25 nmol/L of fluorescein-cGMP. The DMSO final concentration for each experiment was 2%. After 90 min of incubation at 30° C., the reaction was terminated by the addition of binding reagent. The maximum Fluorescence polarization was measured using a Synergy4 (BioTek) plate reader.

[2] = test system: PDE isozymes 1-11 (except PDE6); experiment: IMAP fluorescence polarization PDE assay, panel of PDE isozymes; type: biochemical; details: 25 μM; FIG. 5C
Protocol: as §1

[3] = test system: rat intact hearts (Langendorff model); experiment: Langendorff model of ischemia/reperfusion injury, infarct size by TTC staining; type: in vivo, Sprague Dawley rats; details: 45 min ischemia and 2 h reperfusion; 0.7 mg/kg daily for 48 h; FIG. 8
Protocol: The ex vivo Langendorff procedure is a well-established preparation used to investigate heart physiology, ischemia/reperfusion injury, and other cardiovascular insults (23, 24; also see, e.g., reference 22). Sprague Dawley rats (275-325g) were administered either no drug or Compound 9 daily (at 0.7 mg/kg) for a total of two days (two administrations in total). Forty-eight hours after the start of drug exposure, hearts were removed and exposed to 45 min no flow ischemia and 2 h reperfusion in the Langendorff model (hearts were first equilibrated in KHB buffer for 10 min and then subjected to 45 min ischemia followed by 2 h reperfusion with KHB buffer), in the absence of drug.
In LDH and TTC assays for the Langendorff Preparation, coronary effluent samples (500 μL) from the Langendorff preparation were obtained upon attachment of excised heart, every 15 min before ischemia, immediately after 45 min ischemia, and at 15 min intervals during reperfusion. LDH was measured (using a Cytotox-96 nonradioactive cytotoxicity assay kit (Promega), with the absorbance read at 490 nm). […]
The protective (preconditioning) effect of Compound 9 was evaluated in an art-recognized Langendorff model of ischemia/reperfusion injury. […]

[4] = molecular target: T1, ovine COX-1 (Ovis aries, UniProt P05979); experiment: COX Fluorescent Inhibitor Screening assay, COX-1; type: biochemical; details: FIG. 4A
T1 construct: purchased Cayman Chemical 700100
T1 sequence (P05979 25-600): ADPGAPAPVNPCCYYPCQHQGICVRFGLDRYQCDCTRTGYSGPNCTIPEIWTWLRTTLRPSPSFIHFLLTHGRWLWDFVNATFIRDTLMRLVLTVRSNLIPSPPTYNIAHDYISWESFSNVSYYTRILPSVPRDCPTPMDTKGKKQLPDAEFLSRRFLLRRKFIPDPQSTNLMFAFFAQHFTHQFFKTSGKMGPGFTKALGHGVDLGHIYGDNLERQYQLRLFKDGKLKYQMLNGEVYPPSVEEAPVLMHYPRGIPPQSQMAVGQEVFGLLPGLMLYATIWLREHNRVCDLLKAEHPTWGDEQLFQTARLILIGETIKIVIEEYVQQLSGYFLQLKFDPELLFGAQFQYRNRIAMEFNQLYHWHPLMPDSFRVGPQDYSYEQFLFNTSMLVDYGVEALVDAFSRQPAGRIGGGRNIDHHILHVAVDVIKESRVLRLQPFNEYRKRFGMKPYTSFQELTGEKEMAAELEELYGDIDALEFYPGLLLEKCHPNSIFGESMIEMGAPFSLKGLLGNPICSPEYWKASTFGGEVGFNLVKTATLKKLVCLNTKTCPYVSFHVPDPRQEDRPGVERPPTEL
Protocol: (§2) Compounds were assayed for cyclooxygenase (COX) inhibition using the COX Fluorescent Inhibitor Screening Kit from Cayman Chemical (Item #: 700100). Briefly, COX enzyme (ovine COX-1 or human recombinant COX-2) diluted in 1× reaction buffer is incubated with the compound or DMSO control for 20 min at 25° C. in a half-area 96-well black microplate. Background wells are also included that contained no enzyme. Added to each well were heme B, to ensure enzyme activity, and 10-acetyl-3,7-dihydroxyphenoxazine (ADHP) assay reagent. After the 20 min incubation, arachidonic acid (AA) substrate was added to all wells. As shown by the schematic diagram below, active COX enzyme converts AA to hydroperoxy endoperoxide (PGG2). Catalyzed by the secondary peroxidase activity of COX, ADHP can react with PGG2 to form a highly fluorescent compound, resorufin. Fluorescence was measured with a […] excitation wavelength and a 585-595 nm emission wavelength. Decreased fluorescence relative to the DMSO control indicates COX inhibition. See, also, Piazza G A, Keeton A B, Tinsley H N, Gary B D, Whitt J D, Mathew B, Thaiparambil J, Coward L, Gorman, G, Li Y, Sani B, Hobrath J V, Maxuitenko Y Y and Reynolds R C. […] Cancer Prevention Research 2009; 2: 572-580.

[5] = molecular target: T2, human recombinant COX-2 (Homo sapiens, UniProt P35354); experiment: COX Fluorescent Inhibitor Screening assay, COX-2; type: biochemical; details: FIG. 4B
T2 construct: purchased Cayman Chemical 700100
T2 sequence (P35354 18-604): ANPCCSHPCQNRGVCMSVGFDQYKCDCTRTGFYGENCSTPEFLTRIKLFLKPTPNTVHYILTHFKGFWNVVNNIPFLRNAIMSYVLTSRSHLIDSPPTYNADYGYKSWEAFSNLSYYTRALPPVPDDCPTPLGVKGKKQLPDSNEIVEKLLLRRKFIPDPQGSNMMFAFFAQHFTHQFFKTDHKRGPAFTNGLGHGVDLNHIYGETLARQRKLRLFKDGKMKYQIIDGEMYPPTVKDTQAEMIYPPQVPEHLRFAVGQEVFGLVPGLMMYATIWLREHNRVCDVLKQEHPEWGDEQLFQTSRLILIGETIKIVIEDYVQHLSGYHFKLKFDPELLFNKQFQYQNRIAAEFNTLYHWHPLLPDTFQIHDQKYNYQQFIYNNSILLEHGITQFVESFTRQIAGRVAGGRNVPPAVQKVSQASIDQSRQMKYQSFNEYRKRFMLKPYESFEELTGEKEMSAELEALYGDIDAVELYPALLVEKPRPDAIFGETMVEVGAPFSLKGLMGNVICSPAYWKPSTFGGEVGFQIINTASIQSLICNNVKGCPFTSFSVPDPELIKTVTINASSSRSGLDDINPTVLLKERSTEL
Protocol: as §2

Chain of PDE10 (Q9Y233 whole entry): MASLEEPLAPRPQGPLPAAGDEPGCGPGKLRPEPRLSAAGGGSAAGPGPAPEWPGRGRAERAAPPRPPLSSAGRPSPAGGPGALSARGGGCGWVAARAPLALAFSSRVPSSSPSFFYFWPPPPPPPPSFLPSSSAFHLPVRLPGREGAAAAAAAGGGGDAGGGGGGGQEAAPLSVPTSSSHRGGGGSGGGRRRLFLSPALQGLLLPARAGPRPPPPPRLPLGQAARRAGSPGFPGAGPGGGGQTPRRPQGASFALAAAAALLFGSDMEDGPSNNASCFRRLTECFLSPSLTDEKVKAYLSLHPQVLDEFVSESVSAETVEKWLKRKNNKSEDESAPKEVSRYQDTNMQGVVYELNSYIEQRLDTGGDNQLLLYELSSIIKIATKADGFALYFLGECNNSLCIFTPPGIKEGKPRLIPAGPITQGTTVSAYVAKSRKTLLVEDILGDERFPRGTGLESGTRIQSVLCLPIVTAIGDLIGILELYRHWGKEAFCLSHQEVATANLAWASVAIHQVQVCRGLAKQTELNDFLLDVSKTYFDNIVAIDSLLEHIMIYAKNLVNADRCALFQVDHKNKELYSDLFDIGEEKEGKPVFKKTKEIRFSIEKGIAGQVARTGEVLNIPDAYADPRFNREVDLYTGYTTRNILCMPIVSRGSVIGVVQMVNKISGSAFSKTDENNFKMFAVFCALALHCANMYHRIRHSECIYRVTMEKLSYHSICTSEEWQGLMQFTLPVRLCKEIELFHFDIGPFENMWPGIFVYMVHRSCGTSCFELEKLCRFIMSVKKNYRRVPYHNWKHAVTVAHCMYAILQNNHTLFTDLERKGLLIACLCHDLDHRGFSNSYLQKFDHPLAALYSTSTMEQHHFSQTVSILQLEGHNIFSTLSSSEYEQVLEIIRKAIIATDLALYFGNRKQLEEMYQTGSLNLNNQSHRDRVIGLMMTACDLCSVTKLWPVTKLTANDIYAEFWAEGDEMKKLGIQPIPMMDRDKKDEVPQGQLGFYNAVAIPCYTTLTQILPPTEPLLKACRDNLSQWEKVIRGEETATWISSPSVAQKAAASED

SMILES: COc1cc2c(cc1OC)/C(=C\c1cc(OC)c(OC)c(OC)c1)C(C)=C2CC(=O)O [Compound 9, (Z)-2-(5,6-dimethoxy-2-methyl-1-(3,4,5-trimethoxybenzylidene)-1H-inden-3-yl)acetic acid]
- IC50 [1]: ~7 µM
- Inhibition of other cGMP PDE isozymes, including PDE 1, 2, 3 and 11 [2]: lower inhibitory effects
- PDE isozyme selectivity [2]: most active against PDE5 and 10
- Infarction size (percent of heart infarcted, TTC staining) [3]: below 20%
- COX-1 inhibition: fold less potent than sulindac sulfide (SS) [4]: ≥ 20 ×
- COX-2 inhibition: fold less potent than celecoxib [5]: approximately 1000 ×
